Data: paper PMC6491884, “Synthesis and Biological Evaluation of 4β-N-Acetylamino Substituted Podophyllotoxin Derivatives as Novel Anticancer Agents” (Frontiers in Chemistry, 2019)
Where two headings read alike, the source gives them in different places.

How the values were obtained:
[1] = tested on: H460 (human non-small cell lung carcinoma); test: MTT growth inhibition assay, H460; format: cell-based
Experimental: (§1) Target compounds 12a–t were evaluated for in vitro cytotoxicity against four human tumor cell lines, including H460 (non-small cell lung carcinoma), HeLA (human cervical carcinoma), EC9706 (human esophageal squamous cell carcinoma), and T24 (human bladder carcinoma), using HaCaT (human immortalized epidermal cells) as a human non-malignant cell line. Etoposide (3) was included as a positive control. The screening procedure was based on the 3-(4, 5-dimethylthiazol-2-yl)-2, 5-diphenyltetrazoliun bromide (MTT) growth inhibition assay with triplicate experiments, and the results are summarized in Table 1.
(§2) The four human cancer cell lines and a normal human epidermal cell line of the screening panel, including H460 (human non-small cell lung carcinoma), HeLA (human cervical carcinoma), EC9706 (human esophageal squamous cell carcinoma), T24 (human bladder carcinoma), and HaCaT (human immortalized epidermal cells), were purchased from American Type Culture Collection (ATCC, Manassas, VA, U.S.A.). H460, EC9706, and T24 were maintained in RPMI 1640 medium containing 10% Fetal Bovine Serum, 100 units/ml penicillin, 100 μg/ml streptomycin under humidified incubator with 5% CO2 atmosphere at 37°C. HeLA and HaCaT were maintained in Dulbecco′s […] (DMEM) supplemented with 10% Fetal Bovine Serum 100 units/ml penicillin, 100 μg/ml streptomycin in a humidified incubator and 5% CO2 atmosphere at 37°C. Logarithmically growing cells were used for the following experiments.
(§3) The cytotoxicity of the synthesized compounds 12a–t against a panel of human cell lines was determined by the 3-(4,5-dimethylthiazol-2-yl)-2,5-diphenyltetrazoliun bromide (MTT) growth inhibition assay. The five human cell lines were, respectively, plated in 96-well-culture plates at the density of 1 × 10^5 cells per well and incubated for 24 h. Cells were exposed to different concentrations of synthetic podophyllotoxin derivatives for 48 h. MTT was added with a dose of 5 mg/mL in phosphate-buffered saline. After incubation for 4 h at 37°C, the purple formazan crystals were dissolved with […] dimethyl sulfoxide and the absorbance was measured at 570 nm in an ELISA reader. Antiproliferative activity was expressed using the IC50 value defined as the concentration of synthetic podophyllotoxin derivatives inhibiting cell proliferation by 50%. The cell viability ratio was calculated by the following formula: cell viability ratio (%) = OD treated /OD control × 100% (Ma et al., [2014]).

[2] = tested on: HeLA (human cervical carcinoma); test: MTT growth inhibition assay, HeLA; format: cell-based; conditions: 48 h
Experimental: as §1, §2, §3

[3] = tested on: T24 (human bladder carcinoma); test: MTT growth inhibition assay, T24; format: cell-based; conditions: T24, 48 h
Experimental: as §1, §2, §3

[4] = tested on: HaCaT (human immortalized epidermal cells); test: MTT growth inhibition assay, HaCaT normal cells; format: cell-based; conditions: 48 h
Experimental: as §1, §2, §3

HeLA cells [5] = test: Cell cycle distribution analysis (FACS, propidium iodide), HeLA; format: cell-based, human; conditions: 24 h
Experimental: (§4) Flow cytometry analysis was carried out to evaluate cell cycle changes and gain further insight into the mode of action with respect to the anti-proliferative effect of compound 12g. HeLA and T24 cancer cells were treated with the selected compound 12g for […] at three different gradient concentrations. The cell cycle accumulation was examined by the propidium iodide staining and cytometric quantification after the cancer cells were cultured for 24 h.
(§5) To understand the cell cycle effect of the synthesized analogs, cell cycle distribution analysis was performed by FACS (Becton Dickinson, San Jose, CA, USA). T24 and HeLA cells were treated with compound 12g for 24 h at 37°C with concentrations of 0.5/1.0/2.0 and 0.75/1.5/3.0 μM, respectively. After treatment, the cells were washed once with PBS and fixed with 70% ice-cold ethanol at […] for overnight. Ethanol was removed by Centrifugation. The cells were stained with a solution containing 0.1% Triton-X 100 (Sigma), 0.2 mg/mL RNase (Sigma), and […] propidium iodide (PI, Sigma) in the dark for 30 min at room temperature. Then, cell cycle distribution was analyzed by using a FACS can flow cytometer (Chen et al., [2013]).

HeLA cells [6] = test: Hoechst 33258 staining, HeLA; format: cell-based, human; conditions: 0.75/1.5/3.0 μM, 24 h, vs vehicle 0.1% DMSO
Experimental: (§6) Apoptosis is one of the major pathways leading to the process of cell death. Visualization of chromatin condensation as well as nuclear shrinking and fragmentation—known as classic characteristics of apoptosis—was carried out in the presence of a representative compound 12g by staining T24 and HeLA cells with Hoechst 33258, by which apoptosis was confirmed as the cause of reduced cell viability.
(§7) T24 and HeLA cells were seeded at a density of 3 × 10^4 cells per well and cultured in 6 well-plates on a cover slip for 24 h at 37°C. Compound 12g treated T24 and HeLA cancer cells for 24 h at 37°C with concentrations of 0.5/1.0/2.0 and 0.75/1.5/3.0 μM, respectively. Afterward, the treated cells were fixed with 4% paraformaldehyde (PFA) for 30 min and stained with 5 μg/mL Hoechst 33258 (bis-benzimide; KeyGEN Bio TECH, China) for 30 min. Nuclei were stained with Hoechst 33258 to examine chromatin condensation or nuclear fragmentation, morphological characteristics of apoptosis. After the cells were washed twice with PBS, the cover slip was inverted and placed on a glass slide and mounted. Apoptotic cells with fluorescence of the soluble DNA fragments were detected directly and photographed under a phase contrast microscope (OLYMPUS IX51, Japan) in a Varian Fluorometer at an excitation wavelength of 365 nm and emission wavelength of 460 nm (Shareef et al., [2015]).

[7] = tested on: EC9706 (human esophageal squamous cell carcinoma); test: MTT growth inhibition assay, EC9706; format: cell-based
Experimental: as §1, §2, §3

T24 cells [8] = test: Hoechst 33258 staining, T24; format: cell-based, human; conditions: T24, 0.5/1.0/2.0 μM, 24 h, vs vehicle 0.1% DMSO
Experimental: as §6, §7

T24 cells [9] = test: Cell cycle distribution analysis (FACS, propidium iodide), T24; format: cell-based, human
Experimental: as §4
as §5, with “T24 and HeLA cells were treated with compound 12g for 24 h at 37°C with concentrations of 0.5/1.0/2.0 and 0.75/1.5/3.0 μM, respectively.” left out

[10] = tested on: four human cancer cell lines (EC-9706, HeLA, T-24 and H460) and a normal human epidermal cell line (HaCaT); test: MTT growth inhibition assay, whole cell line panel; format: cell-based; conditions: read-out: IC50 values across the cell lines
Experimental: as §1, with “1. […]” for “1.”
The cytotoxicity of the synthesized compounds 12a–t against a panel of human cell lines was determined by the 3-(4,5-dimethylthiazol-2-yl)-2,5-diphenyltetrazoliun bromide (MTT) growth inhibition assay. […] After incubation for 4 h at 37°C, the purple formazan crystals were dissolved with […] dimethyl sulfoxide and the absorbance was measured at 570 nm in an ELISA reader. […] The cell viability ratio was calculated by the following formula: cell viability ratio (%) = OD treated /OD control × 100% (Ma et al., [2014]).

[11] = NCI-H460, 48 h, read-out: IC50 (μM) H460
[12] = Homo sapiens, read-out: IC50 (μM) HeLA, MTT, 48 h, n = 3
[13] = read-out: IC50 (μM) T24, MTT, 48 h, n = 3
[14] = read-out: IC50 (μM) HaCaT, MTT, 48 h, n = 3, normal cell line
[15] = EC9706, 48 h, read-out: IC50 (μM) EC9706

Compound	IC50 [1, 11] [µM]	IC50 [2, 12] [µM]	IC50 [3, 13] [µM]	IC50 [4, 14] [µM]	IC50 [7, 15] [µM]	melting point [°C]	further results
CCCN(CCC)CC(=O)NC1c2cc3c(cc2C(c2cc(OC)c(O)c(OC)c2)C2C(=O)OCC12)OCO3 (stereo not drawn) [Compound 12g]	24.2 ± 0.77	2.34 ± 0.39	2.98 ± 0.26	> 50	> 50	–	Cell cycle phase (%) G2/M (HeLA cells [5]; 0.75 uM): 79.69%; Cell cycle phase (%) G2/M (HeLA cells [5]; 1.5 uM): 89.18%; Cell cycle phase (%) G2/M (HeLA cells [5]; 3 uM): 90.66%; apoptotic morphology (Hoechst 33258 staining) (HeLA cells [6]): markedly increased chromatin condensation, nuclear fragmentation and morphological changes; apoptotic morphology (Hoechst 33258 staining) (T24 cells [8]): markedly increased chromatin condensation, nuclear fragmentation and morphological changes; accumulation of T24 cells at G2/M phase (T24 cells [9]; T24, 0.75 μM as printed in text): 65.15%; accumulation of T24 cells at G2/M phase (T24 cells [9]; T24, 1.5 μM as printed in text): 62.76%; accumulation of T24 cells at G2/M phase (T24 cells [9]; T24, 3.0 μM as printed in text): 79.87%
CCCCNCC(=O)N[C@@H]1c2cc3c(cc2[C@@H](c2cc(OC)c(O)c(OC)c2)[C@H]2C(=O)OC[C@@H]21)OCO3 [Compound 12h]	1.57 ± 0.37	1.21 ± 0.31	12.1 ± 1.28	1.54 ± 0.29	22.8 ± 0.32	115 to 118	IC50 [10]: 1.2 to 22.8 µM
COc1cc([C@@H]2c3cc4c(cc3[C@@H](NC(=O)CNCc3ccccc3)[C@H]3COC(=O)[C@H]23)OCO4)cc(OC)c1O [Compound 12n]	16.5 ± 0.39	6.26	> 50	13.3 ± 0.8	40.1 ± 2.43	141 to 143	IC50 ([2]; read-out: IC50 (μM) HeLA, MTT, n = 3): 6.25 ± 0.21 µM
COc1cc([C@@H]2c3cc4c(cc3[C@@H](NC(=O)CNCc3ccccc3)[C@H]3COC(=O)[C@H]23)OCO4)cc(OC)c1OC [Compound 12o]	26.9 ± 0.92	8.55 ± 0.28	> 50	2.14 ± 0.33	11.3 ± 0.22	111 to 113	–
COc1cc([C@@H]2c3cc4c(cc3[C@@H](NC(=O)CNc3ccc(F)cc3)[C@H]3COC(=O)[C@H]23)OCO4)cc(OC)c1O [Compound 12p]	9.75 ± 0.26	> 50	> 50	> 50	> 50	159 to 162	–
COc1ccc(CCNCC(=O)N[C@@H]2c3cc4c(cc3[C@@H](c3cc(OC)c(O)c(OC)c3)[C@H]3C(=O)OC[C@@H]32)OCO4)cc1OC [Compound 12q]	3.43 ± 0.17	4.57 ± 0.3	> 50	3.69 ± 0.19	20.7 ± 0.72	229 to 231	–
COc1ccc(CCNCC(=O)N[C@@H]2c3cc4c(cc3[C@@H](c3cc(OC)c(OC)c(OC)c3)[C@H]3C(=O)OC[C@@H]32)OCO4)cc1OC [Compound 12r]	> 50	> 50	> 50	> 50	> 50	106 to 108	–
COc1cc([C@@H]2c3cc4c(cc3[C@@H](NC(=O)CNCCc3ccc(O)cc3)[C@H]3COC(=O)[C@H]23)OCO4)cc(OC)c1O [Compound 12s]	5.94 ± 0.18	2.27 ± 0.26	12.7 ± 0.73	8.67 ± 0.72	14.3 ± 0.69	234 to 236	–
COc1cc([C@@H]2c3cc4c(cc3[C@@H](NC(=O)CNCCc3ccc(O)cc3)[C@H]3COC(=O)[C@H]23)OCO4)cc(OC)c1OC [Compound 12t]	42.1 ± 1.21	> 50	> 50	> 50	> 50	116 to 119	–
COc1cc([C@@H]2c3cc4c(cc3[C@@H](O[C@@H]3O[C@@H]5CO[C@@H](C)O[C@H]5[C@H](O)[C@H]3O)[C@H]3COC(=O)[C@H]23)OCO4)cc(OC)c1O [Etoposide, etoposide, reference compound]	–	–	–	–	–	–	IC50 ([1]; NCI-H460, MTT, 48 h, n = 3, read-out: IC50 (μM) H460): 43.2 ± 1.45 µM; IC50 ([2]; Homo sapiens, MTT, n = 3, read-out: IC50 (μM) HeLA): 3.12 ± 0.35 µM; IC50 ([3]; MTT, 48 h, n = 3, read-out: IC50 (μM) T24): 8.43 ± 0.33 µM; IC50 ([4]; MTT, n = 3, normal cell line, read-out: IC50 (μM) HaCaT): 48.7 ± 1.69 µM; IC50 ([10]; MTT, span over the cell line panel): 8.4 to 78.2 µM; IC50 ([7]; EC9706, MTT, 48 h, n = 3, read-out: IC50 (μM) EC9706): > 50 µM
